In ChEMBL document CHEMBL2021770, “Potent and Selective Inhibitors of Long Chain l-2-Hydroxy Acid Oxidase Reduced Blood Pressure in DOCA Salt-Treated Rats” (ACS Med Chem Lett, 2011):
Calls of active or inactive are those of the source. No cut-off for these calls is given here.

Legend:
Rattus norvegicus = assay: Antihypertensive activity in DOCA-salt treated Wistar rat assessed as decrease in systolic blood pressure at 10 mg/kg, po bid administered 29 days after DOCA-salt-challenge for 15 days 12 to 15 hrs post-last dose by plethysmography; format: functional, organism-based; set-up: dose 10 mg/kg; settings: Artery
[1] = biological target: T1, 2-Hydroxyacid oxidase 2 (Rattus norvegicus) (UniProt Q07523); assay: Inhibition of rat His6-tagged Hao2 expressed in Escherichia coli BL21/DE3 using 2-hydroxyoctanoic acid as substrate at 10 uM measured every 10 secs by spectrophotometry
T1 sequence (whole entry): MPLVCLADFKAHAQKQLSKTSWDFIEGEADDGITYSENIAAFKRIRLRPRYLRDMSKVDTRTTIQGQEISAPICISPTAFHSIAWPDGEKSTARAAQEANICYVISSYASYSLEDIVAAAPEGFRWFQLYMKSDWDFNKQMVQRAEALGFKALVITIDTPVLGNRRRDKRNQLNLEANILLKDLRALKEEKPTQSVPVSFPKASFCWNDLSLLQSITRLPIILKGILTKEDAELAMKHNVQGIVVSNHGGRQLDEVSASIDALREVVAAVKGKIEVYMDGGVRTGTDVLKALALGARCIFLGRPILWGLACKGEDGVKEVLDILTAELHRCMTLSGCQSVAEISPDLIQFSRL

2-Hydroxyacid oxidase 2 = biological target: T2, 2-Hydroxyacid oxidase 2 (Rattus norvegicus, UniProt Q07523); assay: Inhibition of rat His6-tagged Hao2 expressed in Escherichia coli BL21/DE3 using 2-hydroxyoctanoic acid as substrate measured every 10 secs by spectrophotometry
T2 sequence (Q07523 whole entry): T1 sequence (whole entry)

`CC(C)NCC(O)COc1ccc(CC(N)=O)cc1` (stereo not drawn) was tested, and the Activity (Rattus norvegicus) was “Active”.
Molecule `Cc1n[nH]c(C(=O)O)c1-c1ccc(F)cc1` has an inhibition [1] of 35%.
Molecule `Cc1[nH]nc(C(=O)O)c1CCc1ccc(-c2ccccc2)cc1` has an IC50 (2-Hydroxyacid oxidase 2) of 910 nM.
